Data from ChEMBL document CHEMBL3244199, “6beta-[N,N-Bis(2-chloroethyl)amino]-17-(cyclopropylmethyl)-4,5alpha-epoxy-3,14-dihydroxymorphinan(chlornaltrexamine) a potent opioid receptor alkylating agent with ultralong narcotic antagonist actitivty” (J Med Chem, 1978).
Activity calls are given as the source filed them. The calls are words filed in the database; no cut-off is given here.

What was measured:
[1] = biological target: Opioid receptors; mu/kappa/delta (Homo sapiens) (UniProt P41145+P41143+P35372); conditions: Brain, 1 uM
Sequence of Opioid receptors; mu/kappa/delta (Homo sapiens) (P35372 whole entry, looked up): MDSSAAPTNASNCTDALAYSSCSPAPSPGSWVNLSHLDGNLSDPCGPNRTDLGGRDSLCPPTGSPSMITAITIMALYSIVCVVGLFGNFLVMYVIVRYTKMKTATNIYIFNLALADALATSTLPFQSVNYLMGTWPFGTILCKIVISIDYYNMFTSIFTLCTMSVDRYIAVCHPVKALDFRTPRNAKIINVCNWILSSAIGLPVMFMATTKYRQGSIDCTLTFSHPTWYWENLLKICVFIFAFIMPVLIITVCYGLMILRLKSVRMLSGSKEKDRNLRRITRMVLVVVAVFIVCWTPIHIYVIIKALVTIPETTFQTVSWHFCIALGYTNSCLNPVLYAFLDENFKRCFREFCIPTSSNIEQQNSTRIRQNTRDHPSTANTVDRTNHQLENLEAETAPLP
Sequence of Opioid receptors; mu/kappa/delta (Homo sapiens) (P41143 whole entry, looked up): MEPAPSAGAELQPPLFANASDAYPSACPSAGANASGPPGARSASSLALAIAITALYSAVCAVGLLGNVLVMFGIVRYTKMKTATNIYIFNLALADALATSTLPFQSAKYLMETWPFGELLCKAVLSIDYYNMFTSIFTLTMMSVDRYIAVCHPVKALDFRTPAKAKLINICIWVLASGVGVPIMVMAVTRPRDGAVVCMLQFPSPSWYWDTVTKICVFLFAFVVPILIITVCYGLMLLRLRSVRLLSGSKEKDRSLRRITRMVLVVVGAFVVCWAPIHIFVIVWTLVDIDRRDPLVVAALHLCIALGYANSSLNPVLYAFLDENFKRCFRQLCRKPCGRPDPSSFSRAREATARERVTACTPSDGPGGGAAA
Sequence of Opioid receptors; mu/kappa/delta (Homo sapiens) (P41145 whole entry, looked up): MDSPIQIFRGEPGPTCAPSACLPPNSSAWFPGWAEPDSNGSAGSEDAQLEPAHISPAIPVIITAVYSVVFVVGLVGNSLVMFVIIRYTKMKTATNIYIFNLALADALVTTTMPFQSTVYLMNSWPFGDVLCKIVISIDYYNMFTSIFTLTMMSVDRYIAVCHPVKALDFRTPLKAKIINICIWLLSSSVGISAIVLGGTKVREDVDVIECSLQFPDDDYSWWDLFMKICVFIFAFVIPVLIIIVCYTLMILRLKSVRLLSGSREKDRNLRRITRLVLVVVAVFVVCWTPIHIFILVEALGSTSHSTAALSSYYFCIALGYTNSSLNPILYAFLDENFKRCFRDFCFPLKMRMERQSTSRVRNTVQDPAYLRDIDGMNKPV
Description: Displacement of [3H]naloxone from opioid receptor (unknown origin) in brain homogenate at 1 uM to 10 nM

[2] = Toxicity in mouse assessed as animal death at 2.4 nmol, icv; assay type: organism-based; conditions: in vivo, icv or intrathecal, read-out: Activity
Mus musculus [3] = test: Toxicity in mouse at 4.8 nmol, icv measured within 1.5 hrs post-drug administration; assay type: organism-based; conditions: in vivo, icv_or_intrathecal
Mus musculus [4] = test: Residual inhibition of morphine-induced analgesia in mouse at 2.4 nmol, icv measured after 2 hrs by tail-flick assay; assay type: functional, organism-based

CN1CC[C@]23CCCC[C@H]2[C@H]1Cc1ccc(O)cc13
inhibition [1]: Active

Cl.Oc1ccc2c3c1O[C@H]1[C@H](N(CCCl)CCCl)CC[C@@]4(O)[C@@H](C2)N(CC2CC2)CC[C@]314
mortality [2]: 2%
Activity (Mus musculus [3]): 12%

O=C1CC[C@@]2(O)[C@H]3Cc4ccc(O)c5c4[C@@]2(CCN3CC2CC2)[C@H]1O5
inhibition (Mus musculus [4]): inactive
